Measured values: patent US20250289786A1, “CHLORINATED MONOCARBONYL CURCUMIN COMPOUNDS, PREPARATION METHOD, AND APPLICATION” (Southwest Medical University, priority 2024, published 2025)

Experiments:
PC12 cells [1] = assay: Inhibition of H2O2-induced oxidative damage in PC12 cells; assay type: cell-based, rat
Method: After 24 hours of incubation in the incubator, the relative proliferation rates of the cells were calculated according to the method under Section 2.1.

PC12 cells [2] = assay: Inhibition of corticosterone (CORT)-induced PC12 cell damage; assay type: cell-based, rat; conditions: 24 h
[3] = system: CUMS depression model mice; assay: Forced swimming test in CUMS depression model mice; assay type: in vivo, C57BL/6J mice; conditions: 10 mg/kg oral once a day
Description: (§1) After one week of adaptive feeding, the newly purchased mice were divided into a blank group and CUMS model group. The mice in the blank group were not subjected to behavioral intervention and were fed normally. Mice in the model group were given 1-2 unpredictable behavioral stimuli every day. […] When the same stimulation is continuous, the stimulation method is changed to ensure that the same stimulation is not continuous, and the model construction period is 42 days.

[4] = system: CUMS depression model mice; assay: Sucrose preference test in CUMS depression model mice; assay type: in vivo, C57BL/6J mice; conditions: 10 mg/kg oral once a day, 14th day, in words
Description: as §1

[5] = system: CUMS depression model mice; assay: Open field test in CUMS depression model mice; assay type: in vivo, C57BL/6J mice; conditions: 10 mg/kg oral once a day, 28 days; model 327.22±161.39 cm
Description: as §1

[6] = system: Nrf2, HO-1, BDNF, and TrkB in the hippocampus; assay: Western blot of hippocampal proteins in CUMS depression model mice; assay type: in vivo; conditions: in words
[7] = Solubility detection of CAK01-CAK07; assay type: physicochemical
Description: The chlorinated monocarbonyl curcumin compounds CAK01-CAK07 prepared under the conditions of Example 1 were taken for nuclear magnetic resonance, mass spectrometry, solubility, and melting point detection.

[8] = ABTS free radical capture ability; assay type: biochemical; conditions: 20 min reaction in the dark
Method: 66.2 mg of K2S2O8 was weighed and placed in a 100 mL volumetric flask, pure water was added to the scale line to prepare a 2.45 mmol/L K2S2O8 solution. 192 mg of ABTS was accurately weighed and placed in a 25 mL volumetric flask, and the newly prepared K2S2O8 solution was added for dissolving and constant volume dilution, after standing in the dark for 20 h, the ABTS mother liquor was obtained. Before use, to make the measured value more accurate, the ABTS mother liquor needs to be diluted with a PBS solution of pH7.4 until the absorbance range of the ABTS working solution at 734 nm is 0.70±0.02.
Drug concentration screening: To avoid the complete removal of free radicals by excessive drug concentration and the inability to compare the ability to capture ABTS free radicals, a preliminary screening of drug concentration is required before the formal test. A gradient concentration of compound solution was prepared, and a gradient concentration of Vit C solution was prepared as a positive control. A total of 450 μL of ABTS working solution was accurately absorbed into a 1.5 mL EP tube, and 150 μL of the gradient solution of each group of drugs was added, after 20 min of reaction in the dark, 150 μL of the reaction solution was taken and placed in a 96-well plate, the absorbance was measured by a microplate reader. Three duplicate wells were set for each concentration, and the drug concentration with absorbance between 0.2-0.7 was selected for subsequent determination.
Determination operation: After the drug concentration screening was completed, 7 concentration gradient groups were set within this concentration range. A total of 450 μL of ABTS working solution was accurately absorbed into a 1.5 mL EP tube, and 150 μL of the gradient solution of each group of drugs was added. After 20 min of reaction in the dark, 150 μL of the reaction solution was taken and placed in a 96-well plate, the absorbance was measured by a microplate reader. Three duplicate wells were set for each concentration, the positive control group was a gradient solution of Vit C, and the blank control group was an equal volume of anhydrous ethanol.

PC12 cells [9] = assay: MTT toxicity (safety evaluation) on PC12 nerve cells; assay type: cell-based
Method: The toxicity of each drug to PC12 cells was determined by MTT assay. The principle of the MTT colorimetric method: there is succinate dehydrogenase in the mitochondria of living cells, which can make exogenous MTT become blue-purple crystal formazan insoluble in water, this phenomenon cannot be observed in dead cells. The blue-purple crystal formazan can be dissolved by DMSO, and the absorbance value is measured by a microplate reader at a wavelength of 490 nm, which in turn reflects the number of living cells. […] The operation method is as follows:
The cells were resuscitated with DMEM high glucose medium containing 10% fetal bovine serum and cultured in a 5% CO2 cell incubator at 37° C., when the cells grew to the logarithmic growth phase, they were inoculated into a 96-well plate and cultured for 24 hours, each well was added with 100 μL of each compound solution at the corresponding gradient concentration (60, 30, 15, 7.5, 3.75 μM), after incubation in the incubator for 24 h or 48 h, 20 μL of MTT was added to continue incubation for 4 h, the supernatant was discarded and 150 μL of DMSO was added to dissolve the blue-purple crystals, after shaking for 10 min, the cell viability was detected by a microplate reader, and classified according to the cytotoxicity standard. The relevant calculation formula is as follows: […]

In the case of CNCCC(Oc1ccc(C(F)(F)F)cc1)c1ccccc1 (centres unmarked) [Flu, fluoxetine, reference compound], the cell survival rate (PC12 cells [1]; 7.5 μM drug with 585.8 μM H2O2, 24 h) was 41.92±0.66%, the “effect on viability of CORT-damaged PC12 cells” value (PC12 cells [2]; 3.75-60 μM drug with 514.6 μM CORT, in words) was “did not show the effect of restoring CORT-damaged cells” and the “forced swimming test, depressive symptoms / immobility time” value ([3]; 14th day, in words) was “did not show significant improvement in depressive symptoms”. The “immobility time in the forced swimming test” value ([3]; 28 days) was 130.42 ± 59.96 s, the sucrose preference rate [4] was “failed to significantly increase the sucrose preference rate” and the “overall activity distance in the open field test” value [5] was 705.43±159.14 cm. For the same compound, the “expression of Nrf2, HO-1, BDNF and TrkB” value [6] was “also increased”.

For CCN1C/C(=C\c2cc(Cl)c(O)c(Cl)c2)C(=O)/C(=C/c2cc(Cl)c(O)c(Cl)c2)C1 [CAK03, 3,5-bis ((E)-3,5-dichloro-4-hydroxybenzylidene)-1-ethylpiperidin-4-one], the solubility [7] was 0.08 mg/100 g, the “IC50 values of ABTS captured” value [8] was 46.56 µg/mL and the “Rank (cytotoxicity standard) 24 h” value (PC12 cells [9]; PC12, 3.75 μM) was 1. For the same compound, the “Relative growth rate (%) 24 h” value (PC12 cells [9]; PC12, 3.75 μM) was 96.25 ± 0.78%, the “Rank (cytotoxicity standard) 48 h” value (PC12 cells [9]; PC12, 3.75 μM) was 1 and the “Relative growth rate (%) 48 h” value (PC12 cells [9]; PC12, 3.75 μM) was 98.96 ± 1.23%. For the same compound, the “Rank (cytotoxicity standard) 24 h” value (PC12 cells [9]; PC12, 7.5 μM) was 1, the “Relative growth rate (%) 24 h” value (PC12 cells [9]; PC12, 7.5 μM) was 87.65 ± 5.86% and the “Rank (cytotoxicity standard) 48 h” value (PC12 cells [9]; PC12, 7.5 μM) was 1. The “Relative growth rate (%) 48 h” value (PC12 cells [9]; PC12, 7.5 μM) was 94.59 ± 1.02%, the “Rank (cytotoxicity standard) 24 h” value (PC12 cells [9]; PC12, 15 μM) was 1 and the “Relative growth rate (%) 24 h” value (PC12 cells [9]; PC12, 15 μM) was 88.25 ± 5.62%. For the same compound, the “Rank (cytotoxicity standard) 48 h” value (PC12 cells [9]; PC12, 15 μM) was 1, the “Relative growth rate (%) 48 h” value (PC12 cells [9]; PC12, 15 μM) was 89.84 ± 0.82% and the “Rank (cytotoxicity standard) 24 h” value (PC12 cells [9]; PC12, 30 μM) was 1. The “Relative growth rate (%) 24 h” value (PC12 cells [9]; PC12, 30 μM) was 82.96 ± 2.83%, the “Rank (cytotoxicity standard) 48 h” value (PC12 cells [9]; PC12, 30 μM) was 1 and the “Relative growth rate (%) 48 h” value (PC12 cells [9]; PC12, 30 μM) was 95.25 ± 9.43%. The “Rank (cytotoxicity standard) 24 h” value (PC12 cells [9]; PC12, 60 μM) was 1, the “Relative growth rate (%) 24 h” value (PC12 cells [9]; PC12, 60 μM) was 77.51 ± 4.22% and the “Rank (cytotoxicity standard) 48 h” value (PC12 cells [9]; PC12, 60 μM) was 3. The “Relative growth rate (%) 48 h” value (PC12 cells [9]; PC12, 60 μM) was 30.33±6.54%, the “effect on survival of H2O2-damaged PC12 cells” value (PC12 cells [1]; drug concentration below 30 μM, 24 h, in words) was “increased the survival rate of cells in a concentration-dependent manner” and the “relative cell proliferation rate” value (PC12 cells [2]; 15 μM drug with 514.6 μM CORT) was 59.15±0.51%. For the same compound, the “relative cell proliferation rate” value (PC12 cells [2]; 60 μM drug with 514.6 μM CORT) was 59.92±1.53%.
